Experiments:
[1] = molecular target: T1, FGFR3 (Homo sapiens, UniProt P22607); experiment: FGFR3 in vitro kinase inhibitory activity assay; format: biochemical; details: for IC50: read-out: FGFR3 IC50(μM) or % I
T1 construct: purchased Upstate
Protocol: FGFR3, VEGFR2 and PDGFR in vitro Kinase Inhibitory Activity Assays
Enzymes (from Upstate), prepared at 2× final concentration, were incubated with test compounds, biotinylated Flt3 substrate (biotin-VASSDNEYFYVDF) (Cell Signalling Technology Inc.) and ATP in the appropriate assay buffer (Table 1). The reaction was allowed to proceed for 3 hours (FGFR3), 1 hour (VEGFR2, PDGFR-beta) at room temperature on a plate shaker at 700 rpm before being stopped with 35 mM EDTA, pH 8 (FGFR3, VEGFR2) or 55 mM EDTA, pH 8 (PDGFR-beta). 5× detection mix/50 mM HEPES pH 7.5, 0.1% BSA, 11.34 nM Eu-anti-pY (PY20) (PerkinElmer) 74 nM SA-XL665 (Cisbio) for FGFR3, 50 mM HEPES, pH 7.5, 0.1% BSA, 11.34 nM Eu-anti-pY (PY20), 187.5 nM SA-XL665 for VEGFR2 and 50 mM HEPES, pH 7.5, 0.1% BSA, 11.34 nM Eu-anti-pY (PT66) (PerkinElmer), 375 nM SA-XL665 (Cisbio) for PDGFR-beta) was then added to each well and the plate sealed and incubated at room temperature for one hour on a plate shaker at 700 rpm. The plate was then read on a Packard Fusion plate reader or a BMG Pherastar both in TRF mode.

[2] = molecular target: T2, Ba/F3-Flt3 cells (Homo sapiens, UniProt P36888, cells depend on it, form not given); experiment: Ba/F3-Flt3 assay (Alamar Blue); format: cell-based, murine; details: without IL3
T2 construct: Ba/F3-flt3 − IL3 pIC50; other: without IL3
T2 sequence (P36888 1-993): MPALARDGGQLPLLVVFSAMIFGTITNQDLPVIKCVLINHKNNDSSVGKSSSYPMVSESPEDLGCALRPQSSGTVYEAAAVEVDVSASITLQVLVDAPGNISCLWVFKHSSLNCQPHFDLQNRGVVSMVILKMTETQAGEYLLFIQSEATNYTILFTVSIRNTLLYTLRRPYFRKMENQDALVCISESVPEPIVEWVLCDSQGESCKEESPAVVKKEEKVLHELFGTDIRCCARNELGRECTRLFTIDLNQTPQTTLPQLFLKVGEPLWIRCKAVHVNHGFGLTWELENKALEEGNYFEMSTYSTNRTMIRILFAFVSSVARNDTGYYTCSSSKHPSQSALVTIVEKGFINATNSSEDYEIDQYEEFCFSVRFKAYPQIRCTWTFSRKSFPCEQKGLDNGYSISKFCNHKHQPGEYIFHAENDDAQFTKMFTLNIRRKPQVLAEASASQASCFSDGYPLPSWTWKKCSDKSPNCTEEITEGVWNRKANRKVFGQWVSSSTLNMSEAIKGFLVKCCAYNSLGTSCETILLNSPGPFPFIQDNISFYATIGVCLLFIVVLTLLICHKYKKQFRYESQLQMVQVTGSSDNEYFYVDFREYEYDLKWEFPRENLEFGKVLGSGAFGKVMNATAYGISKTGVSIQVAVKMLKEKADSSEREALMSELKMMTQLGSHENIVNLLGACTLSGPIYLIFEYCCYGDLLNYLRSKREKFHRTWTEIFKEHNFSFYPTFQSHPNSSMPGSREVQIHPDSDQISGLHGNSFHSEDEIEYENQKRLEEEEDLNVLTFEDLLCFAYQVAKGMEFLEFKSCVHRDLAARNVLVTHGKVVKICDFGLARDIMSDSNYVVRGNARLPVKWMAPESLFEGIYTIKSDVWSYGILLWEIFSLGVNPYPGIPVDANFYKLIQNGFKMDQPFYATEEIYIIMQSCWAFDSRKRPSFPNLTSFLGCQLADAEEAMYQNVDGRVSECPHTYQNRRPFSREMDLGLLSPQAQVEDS
From the text: (§1) Ba/F3, a murine interleukin-3 dependent pro-B cell line is increasingly popular as a model system for assessing both the potency and downstream signaling of kinase oncogenes, and the ability of small-molecule kinase inhibitors to block kinase activity. Facilitated by their growth properties. Ba/F3 cells have recently been adapted to high throughput assay formats for compound profiling. Further, several published approaches show promise in predicting resistance to small-molecule kinase inhibitors elicited by point mutations interfering with inhibitor binding (Ba/F3 cells and their use in kinase drug discovery; Markus Warmuth, Sungjoon Kim, Xiang-ju Gu, Gang Xia and Francisco Adria'n; Curr Opin Oncol 19:55-60).
(§2) Ba/F3-Flt3 cells (cultured in phenol red free RPMI-1640, 10% A FCS and 50 μg/ml Gentamycin at 37° C. and 5% 002) were plated at a density of 10000 cells in a total volume of 180 μl medium in a black TC-treated sterile 96-well plate (Corning). After 24 hours, drugs in different dilutions were added to a final volume of 200 μl and at a final DMSO concentration of 0.2% prior to incubation at 37° C., and 5% CO2.
(§3) After 24 h, to each well 40 μl Alamar Blue solution (Aldrich) was added and the cells were further incubated for 4 hours at 37° C. Fluorescence (ex. 544, em. 590 nm) was measured using a fluorescence reader (Labsystems) and IC50's were calculated.
(§4) In the condition containing IL3, 10 ng/ml of murine IL3 (PeproTech) was added during compound incubation.

[3] = test system: Ba/F3-Flt3 cells; experiment: Ba/F3-Flt3 assay (Alamar Blue); format: cell-based, murine; details: Mus musculus, 24 h; with 10 ng/ml murine IL3; read-out: Ba/F3-flt3 + IL3 pIC50 (converted)
From the text: as §1, §2, §3, §4

[4] = molecular target: T3, Ba/F3-TEL-FGFR3 cells (Homo sapiens, UniProt P22607); experiment: Ba/F3-TEL-FGFR3 cell proliferation assay (Alamar Blue); format: cell-based, murine; details: for GI50: 72 hours, read-out: BaF3-TEL-FGFR3 prolif
T3 construct: fused on or other part: TEL (ETV6) N-terminal oligomerising part fused to the FGFR3 kinase part; P41212 (Transcription factor ETV6)
Protocol: Ba/F3-TEL-FGFR3 & Ba/F3 (WT) Cell Proliferation Assays
Stably transfected Ba/F3-TEL-FGFR3 cells were plated out into black 96-well tissue culture plates with clear bottoms in RPMI medium containing 10% FBS and 0.25 mg/ml G418 at a density of 5×10^3 cells/well (200 μl per well). The parental wild-type Ba/F3 cells (DSMZ no.: ACC 300) were plated out into black 96-well tissue culture plates with clear bottoms in RPMI medium containing 10% FBS and 2 ng/ml mouse IL-3 (R&D Systems) at a density of 2.5×10^3 cells/well (200 μl per well). Plates were placed in an incubator overnight before adding the compounds the following day. Dilutions of compounds were made in DMSO starting at 10 mM and were diluted into the wells to give a final DMSO concentration of 0.1% in assay. Compounds were left on the cells for 72 hours before the plates were removed from the incubator and 20 μl of Alamar Blue™ (Biosource) was added to each well. Plates were placed in the incubator for 4-6 hours before reading plates at 535 nm (excitation)/590 nm (emission) on a Fusion plate reader (Packard). Where inhibition is high an IC50 can be determined.

T3 sequence (P22607 whole entry, change not shown, the tested form may be a part): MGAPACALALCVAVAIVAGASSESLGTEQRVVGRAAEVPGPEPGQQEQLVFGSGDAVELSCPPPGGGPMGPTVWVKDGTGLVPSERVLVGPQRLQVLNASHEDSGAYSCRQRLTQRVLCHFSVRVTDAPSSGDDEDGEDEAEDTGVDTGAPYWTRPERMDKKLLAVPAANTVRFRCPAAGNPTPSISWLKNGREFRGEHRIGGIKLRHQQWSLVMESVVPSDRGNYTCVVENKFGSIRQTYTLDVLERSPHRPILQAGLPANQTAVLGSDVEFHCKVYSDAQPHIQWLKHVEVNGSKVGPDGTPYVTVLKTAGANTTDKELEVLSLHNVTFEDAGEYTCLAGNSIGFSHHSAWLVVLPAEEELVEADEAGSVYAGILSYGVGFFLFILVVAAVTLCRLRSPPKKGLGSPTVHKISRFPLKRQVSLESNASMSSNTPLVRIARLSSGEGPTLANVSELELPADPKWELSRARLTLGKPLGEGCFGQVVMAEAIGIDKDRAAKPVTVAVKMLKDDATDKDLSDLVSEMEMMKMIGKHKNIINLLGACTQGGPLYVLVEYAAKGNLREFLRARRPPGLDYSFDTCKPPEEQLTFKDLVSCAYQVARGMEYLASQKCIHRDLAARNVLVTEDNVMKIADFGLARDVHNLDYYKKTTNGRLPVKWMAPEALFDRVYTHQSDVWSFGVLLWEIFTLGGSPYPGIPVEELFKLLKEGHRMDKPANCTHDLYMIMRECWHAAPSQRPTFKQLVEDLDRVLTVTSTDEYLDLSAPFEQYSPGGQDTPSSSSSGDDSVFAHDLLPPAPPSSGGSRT
T1 sequence (P22607 23-806): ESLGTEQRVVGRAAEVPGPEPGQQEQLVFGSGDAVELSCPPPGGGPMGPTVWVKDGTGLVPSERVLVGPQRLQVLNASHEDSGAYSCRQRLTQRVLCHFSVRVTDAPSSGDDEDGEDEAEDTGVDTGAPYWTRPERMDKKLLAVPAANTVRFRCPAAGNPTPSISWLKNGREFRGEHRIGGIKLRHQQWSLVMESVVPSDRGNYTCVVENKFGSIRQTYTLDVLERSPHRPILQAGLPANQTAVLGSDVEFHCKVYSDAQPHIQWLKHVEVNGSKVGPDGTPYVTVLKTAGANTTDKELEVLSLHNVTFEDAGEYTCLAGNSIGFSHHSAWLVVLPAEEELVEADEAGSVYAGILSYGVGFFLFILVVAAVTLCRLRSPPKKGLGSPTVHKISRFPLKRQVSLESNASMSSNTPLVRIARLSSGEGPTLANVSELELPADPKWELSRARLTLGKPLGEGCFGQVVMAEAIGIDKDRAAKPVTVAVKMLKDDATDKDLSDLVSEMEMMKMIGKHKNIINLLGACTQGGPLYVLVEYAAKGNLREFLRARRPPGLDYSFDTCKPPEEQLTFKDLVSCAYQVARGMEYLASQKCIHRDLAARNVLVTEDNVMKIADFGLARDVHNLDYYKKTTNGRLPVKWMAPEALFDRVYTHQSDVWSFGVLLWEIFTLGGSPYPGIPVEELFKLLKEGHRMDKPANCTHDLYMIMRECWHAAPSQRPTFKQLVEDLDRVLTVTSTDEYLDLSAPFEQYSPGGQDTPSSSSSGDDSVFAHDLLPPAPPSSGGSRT

| Compound | IC50 [1] | Ba/F3-flt3 − IL3 pIC50 [2] | IC50 [3] | GI50 [4] | FGFR3 IC50(μM) or % I ([1]; % I at 0.003 (unit not given)) | BaF3-TEL-FGFR3 prolif (μM) ([4]; % at 0.100 μM) |
| --- | --- | --- | --- | --- | --- | --- |
| CC(C)Oc1cc(NC(=O)NCC(F)(F)F)cc(-c2cnc3cc(-c4ncc(F)c(N)n4)ccn23)c1 [Compound F-1, 1-{3-[7-(4-Amino-5-fluoro-pyrimidin-2-yl)-imidazo[1,2-a]pyridin-3-yl]-5-isopropoxy-phenyl}-3-(2,2,2-trifluoro-ethyl)-urea] | 0.0072 µM | <5 | > 10000 nM | 120 nM |  |  |
| CC(C)Oc1cc(NC(=O)NCC(F)(F)F)cc(-c2cnc3cc(OCCO)ccn23)c1 [Compound F-17, 1-{3-[7-(2-Hydroxy-ethoxy)-imidazo[1,2-a]pyridin-3-yl]-5-isopropoxy-phenyl}-3-(2,2,2-trifluoro-ethyl)-urea] | 0.017 µM | <5 | > 10000 nM | 500 nM |  |  |
| COCc1cc(NC(=O)NCC(F)(F)F)cc(-c2cnc3cc(-c4nnc(C)o4)ccn23)c1 [Compound F-7, 1-{3-Methoxymethyl-5-[7-(5-methyl-[1,3,4]oxadiazol-2-yl)-imidazo[1,2-a]pyridin-3-yl]-phenyl}-3-(2,2,2-trifluoro-ethyl)-urea] | 0.018 µM | <5 | > 10000 nM | 350 nM |  |  |
| Cc1nnc(-c2ccn3c(-c4cc(NC(=O)NCC(F)(F)F)cc(OC(C)C)c4)cnc3c2)o1 [Compound F-5, 1-{3-Isopropoxy-5-[7-(5-methyl-[1,3,4]oxadiazol-2-yl)-imidazo[1,2-a]pyridin-3-yl]-phenyl}-3-(2,2,2-trifluoro-ethyl)-urea] | 0.0154 µM | <5 | > 10000 nM | 220 nM |  |  |
| CCNC(=O)Nc1cc(OC(C)C)cc(-c2cnc3cc(-c4nnc(C)s4)ccn23)c1 [Compound F-23, 1-Ethyl-3-{3-isopropoxy-5-[7-(5-methyl-[1,3,4]thiadiazol-2-yl)-imidazo[1,2-a]pyridin-3-yl]-phenyl}-urea] | 0.004 µM | <5 | > 10000 nM | 50 nM |  |  |
| CC(C)Oc1cc(NC(=O)NCC(F)(F)F)cc(-c2cnc3cc(-c4nccc(C(C)C)n4)ccn23)c1 [Compound F-29, 1-{3-Isopropoxy-5-[7-(4-isopropyl-pyrimidin-2-yl)-imidazo[1,2-a]pyridin-3-yl]-phenyl}-3-(2,2,2-trifluoroethyl)-urea] | 0.092 µM | <5 | > 10000 nM | 3160 nM |  |  |

Further lines, results first:

| IC50 [1] | Ba/F3-flt3 − IL3 pIC50 [2] | IC50 [3] | GI50 [4] | FGFR3 IC50(μM) or % I ([1]; % I at 0.003 (unit not given)) | BaF3-TEL-FGFR3 prolif (μM) ([4]; % at 0.100 μM) | Compound |
| --- | --- | --- | --- | --- | --- | --- |
| 0.0144 µM | <5 | > 10000 nM | 170 nM |  |  | CC(C)Oc1cc(NC(=O)NCC(F)(F)F)cc(-c2cnc3cc(-c4ncccn4)ccn23)c1 [Compound F-2, 1-[3-Isopropoxy-5-(7-pyrimidin-2-yl-imidazo[1,2-a]pyridin-3-yl)-phenyl]-3-(2,2,2-trifluoro-ethyl)-urea] |
| 0.00096 µM | <5 | > 10000 nM | 9 nM |  |  | Cc1nnc(-c2ccn3c(-c4cc(NC(=O)NCC(F)(F)F)cc(OC(C)C)c4)cnc3c2)s1.Cl [Compound F-20, 1-{3-Isopropoxy-5-[7-(5-methyl-[1,3,4]thiadiazol-2-yl)-imidazo[1,2-a]pyridin-3-yl]-phenyl}-3-(2,2,2-trifluoro-ethyl)-urea] |
| 0.0016 µM | <5 | > 10000 nM | 100 nM |  |  | Cc1cn(-c2ccn3c(-c4cc(NC(=O)NCC(F)(F)F)cc(OC(C)C)c4)cnc3c2)cn1 [Compound F-28, 1-{3-Isopropoxy-5-[7-(4-methylimidazol-1-yl)-imidazo[1,2-a]pyridin-3-yl]-phenyl}-3-(2,2,2-trifluoro-ethyl)-urea] |
| 0.02 µM | <5 | > 10000 nM | 440 nM |  |  | CC(C)Oc1cc(NC(=O)NCC(F)(F)F)cc(-c2cnc3cc(OCCCO)ccn23)c1 [Compound F-18, 1-{3-[7-(3-Hydroxy-propoxy)-imidazo[1,2-a]pyridin-3-yl]-5-isopropoxy-phenyl}-3-(2,2,2-trifluoro-ethyl)-urea] |
| 0.042 µM | <5 | > 10000 nM | 1580 nM |  |  | CC(C)Oc1cc(NC(=O)NCC(F)(F)F)cc(-c2cnc3cc(-c4nccc(C(C)(C)CO)n4)ccn23)c1 [Compound F-27, 1-(3-{7-[4-(2-Hydroxy-1,1-dimethylethyl)-pyrimidin-2-yl]-imidazo[1,2-a]pyridin-3-yl}-5-isopropoxy-phenyl)-3-(2,2,2-trifluoro-ethyl)-urea] |
| 0.025 µM | <5 | > 10000 nM | 370 nM |  |  | CCOc1cc(NC(=O)NCC(F)(F)F)cc(-c2cnc3cc(-c4nnc(C)o4)ccn23)c1 [Compound F-15, 1-{3-Ethoxy-5-[7-(5-methyl-[1,3,4]oxadiazol-2-yl)-imidazo[1,2-a]pyridin-3-yl]-phenyl}-3-(2,2,2-trifluoro-ethyl)-urea] |
|  | <5 | > 10000 nM |  | 45.0% at 0.003 | 50.0% at 0.100 μM | Cc1nc(N)cc(-c2ccn3c(-c4cc(NC(=O)NCC(F)(F)F)cc(OC(C)C)c4)cnc3c2)n1 [Compound F-4, 1-{3-[7-(6-Amino-2-methyl-pyrimidin-4-yl)-imidazo[1,2-a]pyridin-3-yl]-5-isopropoxy-phenyl}-3-(2,2,2-trifluoro-ethyl)-urea] |

Source: US8722687B2, “Imidazo [1,2-A]pyridine derivatives as FGFR kinase inhibitors for use in therapy” (Astex Therapeutics Ltd, priority 2009, dated 2014)
